Earlier results as cited in article PMC7905424 (Biochemistry. Biokhimiia, 2021).
Where two headings read alike, the source gives them in different places.

Key:
[1] = system: pro-inflammatory cytokine IL-6; details: COVID-19 patients

Question: For ACE2, which Kd (SARS-CoV-2 S protein; read-out: Kd for ACE2, lower end of literature range) is on record?
Answer: 0.0012 µM

Question: And the Kd (SARS-CoV-2 S protein; read-out: Kd for ACE2, upper end of literature range)?
Answer: 0.095 µM

Question: Which “content of the pro-inflammatory cytokine IL-6” value [1] does the source give for low-molecular-weight heparin here?
Answer: pronounced decrease
